Here are results for two compounds from patent publication US7977375B2, “Antibiotic and method of production thereof” (Helmholtz-Zentrum Für Infektionsforschung GmbH, priority 2004, dated 2011).

For data set [1], the system named is MRSA 2 (methicillin-resistant S. aureus, clinical isolate). Description: agar diffusion method, inhibition zone. Type of data set: cell-based, Staphylococcus aureus. The note with it: MRSA 2; MH agar, 18 hours at 37° C.; per disk 10 μl crude extract, 50 μg macrolactin, 78 μg erythromycin, 30 μg vancomycin, 10 μg ampicillin. On the procedure:
(§1) The agar diffusion method employing Mueller-Hinton (MH) agar (Difco Laboratories) was used to determine effectiveness against bacteria and yeasts. Sterile paper disks (Schleicher & Schüell, Germany) were seeded with 10 μl crude extract or with a solution of purified macrolactin (final compound concentration on the disk 50 μg) and then placed on the surface of MH-agar plates that had been seeded beforehand with a suspension of overnight culture of the test microorganisms at a concentration of 10^5 cells/ml.
On the technique in general: In agar diffusion tests the substance spreads into inoculated agar from a disc or well.

The test system of data set [2] is MRSA 3 (methicillin-resistant S. aureus, clinical isolate). The experiment in a line: agar diffusion method, inhibition zone. The note with it: MRSA 3; MH agar, 18 hours at 37° C.; per disk 10 μl crude extract, 50 μg macrolactin, 78 μg erythromycin, 30 μg vancomycin, 10 μg ampicillin. The class given is cell-based, Staphylococcus aureus. The method, then: as §1
Data set [3] relates to S. aureus # (own collection, methicillin-sensitive control strain). Description: agar diffusion method, inhibition zone. Type of data set: cell-based, Staphylococcus aureus. The note with it: S. aureus # own collection; MH agar, 18 hours at 37° C.; per disk 10 μl crude extract, 50 μg macrolactin, 78 μg erythromycin, 30 μg vancomycin, 10 μg ampicillin. The method, then: as §1

Data set [4] deals with S. aureus DSMZ 1104. Description: agar diffusion method, inhibition zone. The conditions noted are these: S. aureus DSMZ 1104; MH agar, 18 hours at 37° C.; per disk 10 μl crude extract, 50 μg macrolactin, 78 μg erythromycin, 30 μg vancomycin, 10 μg ampicillin. Type of data set: cell-based, Staphylococcus aureus. The method, then:
as §1

The test system of data set [5] is E. faecalis ATCC 29212. The experiment in a line: agar diffusion method, inhibition zone. The class given is cell-based, Enterococcus faecalis. The note with it: E. faecalis ATCC 29212; MH agar, 18 hours at 37° C.; per disk 10 μl crude extract, 50 μg macrolactin, 78 μg erythromycin, 30 μg vancomycin, 10 μg ampicillin. On the procedure: as §1
Data set [6] relates to E. faecalis VRAS E305. Description: agar diffusion method, inhibition zone. The note with it: E. faecalis VRAS E305; MH agar, 18 hours at 37° C.; per disk 10 μl crude extract, 50 μg macrolactin, 78 μg erythromycin, 30 μg vancomycin, 10 μg ampicillin. The class given is cell-based, Enterococcus faecalis. The method, then:
as §1

The subject of data set [7] is E. faecium VRAR E315. The experiment in a line: agar diffusion method, inhibition zone. The conditions noted are these: E. faecium VRAR E315; MH agar, 18 hours at 37° C.; per disk 10 μl crude extract, 50 μg macrolactin, 78 μg erythromycin, 30 μg vancomycin, 10 μg ampicillin. The class given is cell-based, Enterococcus faecium. The method, then: as §1
Data set [8] concerns B. cepacia SCV 141. Description: agar diffusion method, inhibition zone. The class given is cell-based, Burkholderia cepacia. The note with it: MH agar, 18 hours at 37° C., per disk 10 μl crude extract, 50 μg macrolactin, 78 μg erythromycin, 10 μg ampicillin. The method, then: as §1
The B. cepacia strain used, which is a clinical isolate from a cystic fibrosis patient, forms small colonies (SCV 141).

The test system of data set [9] is L929 mouse fibroblast cells. The experiment in a line: inhibition of proliferation, CyQUANT cell proliferation test. Type of data set: cell-based. The conditions noted are these: 5 days. The method, then: The cytotoxicity of 7-O-malonyl macrolactin A was compared to that of 7-O-succinyl macrolactin A and macrolactin A in vitro with respect to the inhibition of the proliferation of L929 mouse fibroblast cells or the human epithelial cell line HeLa.
For the cell culture, the HeLa cells were cultivated in low-glucose DMEM medium (Gibco), and the L929 cells in high-glucose DMEM medium. Both were supplemented with 10% by volume foetal calf serum (Gibco) at 37° C. in an atmosphere containing 5% CO2. The cells were extracted from stock cultures by means of trypsinization with EDTA (HeLa) or without EDTA (L929), then counted and diluted to 2×10^5 cells/ml. For the tests, microtitre plates (Nunc.) comprising 96 depressions were plated out in serial dilution without or in the presence of the test compounds or methanol. Determination of morphological alterations of the cells was carried out by means of phase contrast microscopy after 1, 2 and 5 days incubation.
After 5 days cultivation, cell counts were determined by the CyQUANT cell proliferation test (Molecular Probes), which is a highly sensitive microtitre plate test based on fluorescence. The test employs the dye CyQUANT, which, by binding to cellular nucleic acids, enhances fluorescence, which can then be measured by fluorescein excitation. The emission of fluorescence by the dye-nucleic acid complex correlated linearly with the cell count. For test purposes, the residue was carefully removed after 5 days incubation, the cells washed with PBS (phosphate buffered saline solution), the buffer removed and the cells frozen at −80° C. For the test, the cells were thawed at ambient temperature and lysated in a buffered solution containing the dye CyQUANT, in accordance with manufacturer's instructions. Fluorescence was measured by means of a fluormetric microtitre-plate reader (Titertex Fluorskan II) (excitation at 480 nm, emission at 520 nm). The […] were used to calculate the percentage of cellular proliferation in medium both alone and in the presence of serial dilutions of methanol and the macrolactin compounds. […] Proliferation was measured by means of the fluorescence-based test CyQUANT for determining viable cell counts. Table 5 illustrates the relative inhibition of proliferation as compared to a control culture comprising fresh medium without the addition of a macrolactin.

Data set [10] deals with HIV. The note with it: state of the art; cited from earlier work.
The conditions of data set [11]: state of the art; cited from earlier work.
The subject of data set [12] is bacteria. The note with it: state of the art; cited from earlier work.
The conditions of data set [13]: JP 9301970; cited from earlier work.

Consider `C[C@@H]1CCC/C=C/C=C/C(O)CC(O)C/C=C\C=C\C(O)C/C=C/C=C\C(=O)O1` (stereo partly drawn) [Macrolactin A, 8, 14, 16-trihydroxy-24(R)-methyl-oxacyclotetracosa-3(Z), 5(B), 9(E), 11(Z), 17(E), 19(E)-hexaen-2-on], for which the Inhibition zone in data set [1] was 27 mm; in [2], 35 mm; in data set [3], 25 mm; in [4], 18 mm; in [5], 0 mm; in data set [6], 0 mm. Further, the Inhibition zone in data set [7] and in data set [8] was 0 mm each time. Moreover, the Inhibition of proliferation in data set [9] (compound concentration 3.9 μg/ml) was 23%; in data set [9] (compound concentration 7.8 μg/ml), 29%; in data set [9] (compound concentration 15.6 μg/ml), 38%; in data set [9] (compound concentration 31.25 μg/ml), 81%; in [9] (compound concentration 56.5 μg/ml), 83%; in data set [9] (compound concentration 125 μg/ml), 83%. The “antiviral activity” value in [10] is “active against HIV”. Further, the “cytotoxicity” value in [11] was “cytotoxic”. Also, the “antibacterial activity” value in [12] is reported as “relatively weak”.

For macrolactin M, in [13], the “antimicrobial activity” value is “antimicrobially active”.
